The source made the active and inactive calls.
Assays:
[1] = KCNQ1 potentiation selectivity check – automated patch clamp, KCNQ1-CHO cells, selectivity assay for KCNQ2 activator project, dose response (AID 493044); type: functional, cell-based
[2] = activation of human KCNQ1/KCNE1 current – automated patch clamp, CHO cells, selectivity assay for KCNQ2 activator project, dose response (AID 493042); type: functional
[3] = biological target: Potassium voltage-gated channel subfamily KQT member 2 (Rattus norvegicus, UniProt O88943); test: Mode of action assay-Dose response assay for compounds that activate KCNQ2 potassium channels on automated patch clamp. [Related pubchem assays (depositor defined):AID2239, AID2258, AID2287, AID493113]; type: functional
Sequence of Potassium voltage-gated channel subfamily KQT member 2 (O88943 whole entry): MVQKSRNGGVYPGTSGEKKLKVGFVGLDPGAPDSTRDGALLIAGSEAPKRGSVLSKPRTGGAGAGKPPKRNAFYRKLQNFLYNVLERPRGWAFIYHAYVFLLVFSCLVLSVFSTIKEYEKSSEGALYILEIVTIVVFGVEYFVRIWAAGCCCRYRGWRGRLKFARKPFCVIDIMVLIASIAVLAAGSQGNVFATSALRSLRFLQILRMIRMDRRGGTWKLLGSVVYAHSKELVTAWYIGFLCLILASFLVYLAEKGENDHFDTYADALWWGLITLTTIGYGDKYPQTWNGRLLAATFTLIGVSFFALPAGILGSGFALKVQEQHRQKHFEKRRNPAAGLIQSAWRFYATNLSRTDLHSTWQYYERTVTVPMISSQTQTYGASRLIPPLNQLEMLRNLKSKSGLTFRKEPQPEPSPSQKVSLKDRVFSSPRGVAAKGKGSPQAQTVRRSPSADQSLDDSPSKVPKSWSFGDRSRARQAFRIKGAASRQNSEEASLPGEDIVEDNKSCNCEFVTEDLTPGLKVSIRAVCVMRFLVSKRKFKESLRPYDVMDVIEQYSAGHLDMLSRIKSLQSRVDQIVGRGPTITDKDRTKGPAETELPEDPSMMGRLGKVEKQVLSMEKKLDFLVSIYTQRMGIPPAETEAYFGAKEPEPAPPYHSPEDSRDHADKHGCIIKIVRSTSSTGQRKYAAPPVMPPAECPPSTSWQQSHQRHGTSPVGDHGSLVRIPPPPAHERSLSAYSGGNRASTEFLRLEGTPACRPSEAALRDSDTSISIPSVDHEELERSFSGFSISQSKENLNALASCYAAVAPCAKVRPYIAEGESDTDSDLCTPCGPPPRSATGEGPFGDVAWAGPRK

[4] = biological target: T1, Potassium voltage-gated channel subfamily KQT member 4 (Homo sapiens, UniProt P56696); test: activation of KCNQ4 potassium current – automated patch clamp, CHO cells, selectivity assay for KCNQ2 activator project, dose response (AID 493043); type: functional, cell-based
T1 sequence (P56696 whole entry): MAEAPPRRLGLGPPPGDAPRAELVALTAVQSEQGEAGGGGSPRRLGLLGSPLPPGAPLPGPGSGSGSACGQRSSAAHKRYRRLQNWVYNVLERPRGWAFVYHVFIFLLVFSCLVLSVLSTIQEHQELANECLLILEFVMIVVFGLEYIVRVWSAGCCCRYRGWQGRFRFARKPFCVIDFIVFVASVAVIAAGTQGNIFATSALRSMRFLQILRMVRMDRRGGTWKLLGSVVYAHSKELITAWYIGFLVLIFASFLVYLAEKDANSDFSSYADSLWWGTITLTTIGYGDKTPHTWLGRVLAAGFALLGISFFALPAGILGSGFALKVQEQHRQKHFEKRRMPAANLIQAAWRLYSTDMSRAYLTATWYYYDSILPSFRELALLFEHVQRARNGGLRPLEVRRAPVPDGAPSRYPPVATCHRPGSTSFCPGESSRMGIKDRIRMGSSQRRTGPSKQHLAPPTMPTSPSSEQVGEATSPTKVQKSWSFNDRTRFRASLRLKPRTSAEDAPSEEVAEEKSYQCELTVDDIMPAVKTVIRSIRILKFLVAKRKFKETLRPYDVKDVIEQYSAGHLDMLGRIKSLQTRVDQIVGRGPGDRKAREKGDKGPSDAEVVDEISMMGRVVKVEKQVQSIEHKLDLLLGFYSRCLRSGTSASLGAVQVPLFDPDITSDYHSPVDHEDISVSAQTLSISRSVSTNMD

[5] = biological target: Potassium voltage-gated channel subfamily KQT member 2/member 3 (Rattus norvegicus, UniProt O88943+O88944); test: Mode of action assay-Dose response assay for KCNQ2 activators in the KCNQ2/KCNQ3 co-expressing cells on automated patch clamp. [Related pubchem assays (depositor defined):AID2239, AID2258, AID2287]; type: functional
Sequence of Potassium voltage-gated channel subfamily KQT member 2/member 3 (O88943 whole entry): as the sequence (O88943 whole entry) above
Sequence of Potassium voltage-gated channel subfamily KQT member 2/member 3 (O88944 whole entry): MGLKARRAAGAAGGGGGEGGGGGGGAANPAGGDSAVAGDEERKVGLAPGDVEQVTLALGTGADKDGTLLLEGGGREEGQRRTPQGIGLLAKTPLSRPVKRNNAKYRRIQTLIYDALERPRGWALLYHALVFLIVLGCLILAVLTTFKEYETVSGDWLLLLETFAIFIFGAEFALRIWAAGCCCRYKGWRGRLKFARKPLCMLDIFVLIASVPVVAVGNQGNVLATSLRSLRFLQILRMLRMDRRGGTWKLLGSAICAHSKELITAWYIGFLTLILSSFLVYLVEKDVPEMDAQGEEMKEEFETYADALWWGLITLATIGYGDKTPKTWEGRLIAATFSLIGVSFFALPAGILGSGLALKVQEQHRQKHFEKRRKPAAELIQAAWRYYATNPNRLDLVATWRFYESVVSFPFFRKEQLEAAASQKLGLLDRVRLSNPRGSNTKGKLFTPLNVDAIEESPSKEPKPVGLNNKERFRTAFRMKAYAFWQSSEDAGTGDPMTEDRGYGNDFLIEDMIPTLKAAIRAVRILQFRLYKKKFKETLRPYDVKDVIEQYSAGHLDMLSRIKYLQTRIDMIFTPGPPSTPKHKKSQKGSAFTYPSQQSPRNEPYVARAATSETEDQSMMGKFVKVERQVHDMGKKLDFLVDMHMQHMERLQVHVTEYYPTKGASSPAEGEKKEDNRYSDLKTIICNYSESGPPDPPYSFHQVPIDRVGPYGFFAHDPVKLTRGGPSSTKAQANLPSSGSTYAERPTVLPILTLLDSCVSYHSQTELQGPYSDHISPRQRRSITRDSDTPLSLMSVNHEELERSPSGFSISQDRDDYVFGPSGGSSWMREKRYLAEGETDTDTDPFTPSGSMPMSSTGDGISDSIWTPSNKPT

[6] = biological target: T1, Potassium voltage-gated channel subfamily KQT member 4; test: KCNQ4 thallium flux concentration-response – KCNQ4-expressing cells, selectivity assay for KCNQ2 activator project, dose response (AID 504416); type: functional, cell-based
[7] = biological target: T2, Platelet-activating factor acetylhydrolase 2, cytoplasmic (Mus musculus, UniProt Q8VDG7); test: Late stage assay provider results from the probe development effort to identify inhibitors of PAFAH2: fluorescence-based cell-based gel-based Activity-Based Protein Profiling (ABPP) IC50. [Related pubchem assays (depositor defined):AID492956, AID492969, AID493030]; type: functional
T2 sequence (Q8VDG7 whole entry): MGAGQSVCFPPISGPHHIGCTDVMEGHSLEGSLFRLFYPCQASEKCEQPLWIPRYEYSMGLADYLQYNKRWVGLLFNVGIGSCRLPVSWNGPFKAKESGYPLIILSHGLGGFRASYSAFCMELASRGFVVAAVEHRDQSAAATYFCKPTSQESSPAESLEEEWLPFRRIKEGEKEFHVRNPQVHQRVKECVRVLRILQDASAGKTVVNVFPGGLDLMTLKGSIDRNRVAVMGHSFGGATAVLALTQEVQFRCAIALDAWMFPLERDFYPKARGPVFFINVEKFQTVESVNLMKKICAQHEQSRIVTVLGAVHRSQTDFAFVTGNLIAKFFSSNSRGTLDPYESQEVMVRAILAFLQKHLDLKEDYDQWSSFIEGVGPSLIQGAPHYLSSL

[8] = biological target: T2, Platelet-activating factor acetylhydrolase 2, cytoplasmic; test: Late stage assay provider results from the probe development effort to identify inhibitors of PAFAH2: Fluorescence-based biochemical gel-based Activity-Based Protein Profiling (ABPP) IC50. [Related pubchem assays (depositor defined):AID492956, AID492969, AID493030]
[9] = biological target: Phospholipase D1 (Homo sapiens, UniProt Q13393); test: cellular phospholipase D1 inhibition IC50 – cell-based, dose response (AID 602151); type: functional;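 also: cellular PLD1 assay in Calu-1 cells stimulated with PMA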
[10] = biological target: Phospholipase D2 (Homo sapiens, UniProt O14939); test: cellular phospholipase D2 inhibition IC50 – cell-based, dose response (AID 602147); type: functional;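 also: cellular assay in HEK293 cells overexpressing GFP-tagged PLD2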
[11] = biological target: T3, Dual specificity protein phosphatase 3 (Homo sapiens, UniProt P51452); test: VHR1 phosphatase inhibitors, primary screen, biochemical, absorbance, uHTS (AID 1654)
T3 sequence (P51452 whole entry): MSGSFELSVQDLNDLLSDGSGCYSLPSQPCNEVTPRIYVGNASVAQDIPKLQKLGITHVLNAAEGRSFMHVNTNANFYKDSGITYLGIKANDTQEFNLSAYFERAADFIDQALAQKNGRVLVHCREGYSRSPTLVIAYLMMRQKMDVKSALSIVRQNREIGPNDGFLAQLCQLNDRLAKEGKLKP

[12] = biological target: T3, Dual specificity protein phosphatase 3; test: VHR1 phosphatase inhibitors, biochemical (AID 1878)
[13] = biological target: T4, Dual specificity protein phosphatase 6 (Rattus norvegicus, UniProt Q64346); test: inhibition of rat DUSP6 enzyme activity – biochemical, in vitro, primary screen (AID 425)
T4 sequence (Q64346 whole entry): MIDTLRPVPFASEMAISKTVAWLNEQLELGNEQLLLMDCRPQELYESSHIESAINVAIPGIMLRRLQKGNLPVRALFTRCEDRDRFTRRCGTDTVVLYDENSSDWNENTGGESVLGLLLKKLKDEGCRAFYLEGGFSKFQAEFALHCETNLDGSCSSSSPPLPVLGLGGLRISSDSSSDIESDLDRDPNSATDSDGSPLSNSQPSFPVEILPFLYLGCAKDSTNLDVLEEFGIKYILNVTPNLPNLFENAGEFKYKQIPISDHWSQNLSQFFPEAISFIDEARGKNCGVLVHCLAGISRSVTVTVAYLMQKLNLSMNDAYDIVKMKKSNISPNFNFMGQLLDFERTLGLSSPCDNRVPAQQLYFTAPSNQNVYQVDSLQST

[14] = biological target: Beta-adrenergic receptor kinase 1 (Homo sapiens, UniProt P25098); test: aptamer displacement from bead-bound GRK2 – biochemical, cherry pick 1, bead flow cytometry, dose response (AID 504500)
[15] = biological target: T5, Short transient receptor potential channel 4 (Mus musculus, UniProt Q9QUQ5); test: calcium entry via TRPC4 opening agents – cell-based, HEK293 TRPC4/mu-opioid, Fluo-4 calcium, dose response (AID 434937); type: functional
T5 sequence (Q9QUQ5 whole entry): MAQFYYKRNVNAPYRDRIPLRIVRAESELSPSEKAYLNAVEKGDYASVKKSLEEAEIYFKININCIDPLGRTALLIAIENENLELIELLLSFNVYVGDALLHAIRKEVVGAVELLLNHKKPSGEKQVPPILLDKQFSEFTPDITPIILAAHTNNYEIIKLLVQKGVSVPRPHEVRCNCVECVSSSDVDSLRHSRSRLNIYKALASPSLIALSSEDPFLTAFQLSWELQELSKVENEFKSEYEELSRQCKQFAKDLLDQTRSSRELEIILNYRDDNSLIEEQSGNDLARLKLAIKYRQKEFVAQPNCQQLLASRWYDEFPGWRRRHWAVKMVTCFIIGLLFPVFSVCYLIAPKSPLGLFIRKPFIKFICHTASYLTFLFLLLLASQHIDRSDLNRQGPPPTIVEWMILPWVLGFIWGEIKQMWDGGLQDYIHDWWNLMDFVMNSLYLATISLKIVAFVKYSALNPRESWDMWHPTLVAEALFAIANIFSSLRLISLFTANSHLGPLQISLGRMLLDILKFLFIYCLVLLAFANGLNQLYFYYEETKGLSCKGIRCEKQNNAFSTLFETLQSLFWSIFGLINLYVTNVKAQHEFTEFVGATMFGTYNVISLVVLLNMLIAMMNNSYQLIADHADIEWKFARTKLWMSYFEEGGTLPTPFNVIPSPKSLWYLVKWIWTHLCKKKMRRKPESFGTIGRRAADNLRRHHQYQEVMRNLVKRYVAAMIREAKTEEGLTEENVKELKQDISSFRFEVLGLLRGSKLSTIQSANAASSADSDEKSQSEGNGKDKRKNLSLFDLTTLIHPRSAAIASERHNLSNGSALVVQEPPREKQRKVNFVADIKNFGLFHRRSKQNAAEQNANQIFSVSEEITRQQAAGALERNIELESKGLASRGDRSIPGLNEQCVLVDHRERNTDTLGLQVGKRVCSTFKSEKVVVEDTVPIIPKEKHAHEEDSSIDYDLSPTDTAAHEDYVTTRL

[16] = biological target: Cysteine protease ATG4B (Homo sapiens, UniProt Q9Y4P1); type: functional;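 also: Fluorescence-based dose-response confirmation assay measuring inhibition of ATG4B activity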
Sequence of Cysteine protease ATG4B (Q9Y4P1 whole entry): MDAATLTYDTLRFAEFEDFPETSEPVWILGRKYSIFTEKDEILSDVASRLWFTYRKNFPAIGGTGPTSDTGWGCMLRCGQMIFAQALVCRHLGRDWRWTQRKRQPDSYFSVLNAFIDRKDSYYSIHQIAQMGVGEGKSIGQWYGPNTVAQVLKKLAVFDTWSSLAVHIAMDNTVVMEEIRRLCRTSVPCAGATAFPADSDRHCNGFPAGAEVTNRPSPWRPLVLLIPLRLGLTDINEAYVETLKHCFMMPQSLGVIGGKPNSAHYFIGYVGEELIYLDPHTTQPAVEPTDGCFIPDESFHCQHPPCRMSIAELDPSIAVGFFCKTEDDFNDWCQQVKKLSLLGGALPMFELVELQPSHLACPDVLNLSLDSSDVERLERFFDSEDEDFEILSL

[17] = biological target: Phospholipase A2 (Homo sapiens, UniProt P04054); type: functional;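 also: confirmatory dose-response counterscreen on phospholipase A2, testing hits that came from an ultra-high-throughput screen for ATG4B inhibitors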
Sequence of Phospholipase A2 (P04054 whole entry): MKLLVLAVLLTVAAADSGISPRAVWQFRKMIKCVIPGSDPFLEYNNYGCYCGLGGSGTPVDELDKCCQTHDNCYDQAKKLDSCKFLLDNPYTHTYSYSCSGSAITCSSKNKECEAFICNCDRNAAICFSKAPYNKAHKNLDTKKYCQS

[18] = biological target: Multidrug resistance protein CDR1 (Candida albicans, UniProt P43071); test: inhibition of Nile Red efflux via Candida CDR1 – S. cerevisiae AD1-8u, singleplex, Cherry Pick1 hits, dose response (AID 588606); type: functional
[19] = biological target: Multidrug resistance protein CDR2 (Candida albicans (strain SC5314 / ATCC MYA-2876) (Yeast), UniProt P78595); test: inhibition of Nile Red efflux via Candida CDR2 – S. cerevisiae AD1-8u, singleplex, Cherry Pick1 hits, dose response (AID 588604); type: functional
[20] = biological target: Dual specificity tyrosine-phosphorylation-regulated kinase 1A (Rattus norvegicus, UniProt Q63470); type: biochemical, Homo sapiens
[21] = biological target: T6, Small ubiquitin-related modifier 1 (Homo sapiens, UniProt P63165); test: SUMO1 protein interaction blockers, potency – biochemical, fluorescence polarization, uHTS hits, dose response (AID 624382); type: functional; conditions: read-out: IC50_Mean
T6 sequence (P63165 whole entry): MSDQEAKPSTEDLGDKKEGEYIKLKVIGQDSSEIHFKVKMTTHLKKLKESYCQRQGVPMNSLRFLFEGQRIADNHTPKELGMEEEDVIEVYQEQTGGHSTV

[22] = biological target: T6, Small ubiquitin-related modifier 1; test: SUMO1 protein-protein binding blockers, potency – biochemical, FRET, dose response (AID 624383); type: functional; conditions: read-out: IC50_Mean
[23] = biological target: T7, Rac GTPase-activating protein 1 (Homo sapiens, UniProt Q9H0H5); test: blockers of MgcRacGAP-driven Rac1 GTP hydrolysis – biochemical, ADP Hunter fluorescence, primary and confirmatory, confirmation (AID 624330); type: functional
T7 sequence (Q9H0H5 whole entry): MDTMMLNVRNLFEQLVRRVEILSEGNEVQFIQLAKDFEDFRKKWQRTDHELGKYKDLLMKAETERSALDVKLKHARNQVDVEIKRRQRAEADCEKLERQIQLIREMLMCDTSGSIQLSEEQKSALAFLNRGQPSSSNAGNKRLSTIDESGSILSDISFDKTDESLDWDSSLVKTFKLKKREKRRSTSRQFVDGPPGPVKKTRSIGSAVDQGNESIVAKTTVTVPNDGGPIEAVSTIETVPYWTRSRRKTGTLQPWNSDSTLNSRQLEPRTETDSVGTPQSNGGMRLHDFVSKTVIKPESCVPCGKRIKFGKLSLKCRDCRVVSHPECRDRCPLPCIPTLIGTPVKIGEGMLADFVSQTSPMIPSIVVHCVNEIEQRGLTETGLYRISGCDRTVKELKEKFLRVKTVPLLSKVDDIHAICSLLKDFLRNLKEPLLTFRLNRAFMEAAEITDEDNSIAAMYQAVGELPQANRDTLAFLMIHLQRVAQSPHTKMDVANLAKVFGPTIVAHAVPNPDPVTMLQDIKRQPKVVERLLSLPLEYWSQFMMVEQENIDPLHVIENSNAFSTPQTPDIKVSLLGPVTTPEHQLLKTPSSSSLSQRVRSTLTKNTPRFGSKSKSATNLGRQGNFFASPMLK

[24] = test system: HEK293; test: HEK293T cell viability loss, resazurin readout – resazurin fluorescence, cytotoxicity control for NF-kB activator project, SAR follow-up (AID 493251); type: functional, cell-based; conditions: Homo sapiens
[25] = test system: Jurkat; test: SAR Analysis of small molecule inhibitors of T-cell specific antigen receptor-induced NF-kB activation in a Jurkat cell line using a luminescence assay. [Related pubchem assays (depositor defined):AID435003, AID435012, AID465]; type: functional, cell-based; conditions: Homo sapiens
[26] = test system: HEK293; test: SAR Analysis of small molecule inhibitors of T-cell specific antigen receptor-induced NF-kB activation in a HEK-293T cell line using a luminescence assay. [Related pubchem assays (depositor defined):AID435003, AID435012, AID489026]; type: functional, cell-based; conditions: Homo sapiens
[27] = biological target: T8, Insulin-degrading enzyme (Homo sapiens, UniProt P14735); test: recombinant IDE activation, cell-free – biochemical, fluorescence polarization, counter-screen for IDE activator project, dose response (AID 588681)
T8 sequence (P14735 whole entry): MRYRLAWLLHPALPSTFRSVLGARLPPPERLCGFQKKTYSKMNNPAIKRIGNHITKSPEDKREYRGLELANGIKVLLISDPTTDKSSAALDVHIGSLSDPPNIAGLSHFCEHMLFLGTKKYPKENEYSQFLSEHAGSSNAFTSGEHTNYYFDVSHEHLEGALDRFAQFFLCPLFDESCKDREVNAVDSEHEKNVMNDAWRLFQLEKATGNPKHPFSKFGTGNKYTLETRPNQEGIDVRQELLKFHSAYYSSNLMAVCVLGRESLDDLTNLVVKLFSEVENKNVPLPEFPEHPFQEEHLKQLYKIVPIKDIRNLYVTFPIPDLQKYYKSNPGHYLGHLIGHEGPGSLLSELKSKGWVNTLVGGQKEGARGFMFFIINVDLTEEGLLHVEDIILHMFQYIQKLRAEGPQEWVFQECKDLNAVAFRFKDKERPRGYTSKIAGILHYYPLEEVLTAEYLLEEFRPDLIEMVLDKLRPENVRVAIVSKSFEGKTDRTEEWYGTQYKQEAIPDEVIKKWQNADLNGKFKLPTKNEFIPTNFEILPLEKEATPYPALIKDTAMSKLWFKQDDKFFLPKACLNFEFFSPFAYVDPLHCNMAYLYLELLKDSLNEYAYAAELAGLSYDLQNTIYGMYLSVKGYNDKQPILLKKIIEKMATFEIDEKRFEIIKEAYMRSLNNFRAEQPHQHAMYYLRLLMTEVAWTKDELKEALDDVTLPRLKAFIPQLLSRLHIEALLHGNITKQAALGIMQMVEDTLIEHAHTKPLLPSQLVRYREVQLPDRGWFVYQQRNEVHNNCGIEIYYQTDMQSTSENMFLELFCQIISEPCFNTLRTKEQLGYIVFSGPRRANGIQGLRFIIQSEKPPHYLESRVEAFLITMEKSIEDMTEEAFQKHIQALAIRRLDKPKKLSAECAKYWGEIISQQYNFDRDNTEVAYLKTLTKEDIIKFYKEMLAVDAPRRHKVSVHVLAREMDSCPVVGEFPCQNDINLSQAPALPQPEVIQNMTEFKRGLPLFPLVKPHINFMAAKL

[28] = biological target: T8, Insulin-degrading enzyme; test: cellular IDE activation of Abeta substrate cleavage – fluorescence polarization, HEK cells, dose response (AID 588439); type: functional, cell-based
[29] = test system: HEK293; test: membrane integrity loss in HEK cells – cell-based, fluorescence, cytotoxicity control for IDE activator project, dose response (AID 588440); type: functional; conditions: Homo sapiens;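 also: cytotoxicity by LDH release measuring loss of membrane integrity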
[30] = test system: HEK293; test: optical interference in Abeta FP readout, dose response, artefact control for IDE activator project, biochemical, fluorescence polarization (AID 588442); type: functional, cell-based; conditions: Homo sapiens
[31] = biological target: T9, Carboxy-terminal domain RNA polymerase II polypeptide A small phosphatase 1 (Homo sapiens, UniProt Q9GZU7); test: CTDSP1 inhibitors, concentration-response, biochemical, absorbance readout, ultra-high-throughput screen actives (AID 540297); type: functional
T9 sequence (Q9GZU7 whole entry): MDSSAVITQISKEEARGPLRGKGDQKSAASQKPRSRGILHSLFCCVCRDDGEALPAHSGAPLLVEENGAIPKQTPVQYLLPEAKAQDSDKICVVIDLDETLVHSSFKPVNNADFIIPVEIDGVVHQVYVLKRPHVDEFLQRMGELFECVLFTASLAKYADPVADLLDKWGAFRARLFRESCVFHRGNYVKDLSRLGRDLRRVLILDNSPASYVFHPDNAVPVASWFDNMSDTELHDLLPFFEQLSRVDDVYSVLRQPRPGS

In the case of `Cc1ccc(C)c(NC(=O)C2CC3CCC2C3)c1` (stereo unspecified), the EC50 [1] is reported as 5.03 µM (active), the EC50 [2] is reported as 2.68 µM (active) and the EC50 [3] is reported as 0.402 µM (active). The EC50 [4] was 1.63 µM (active), the EC50 [5] was 0.396 µM (active) and the EC50 [6] was 2.64 µM (active).

With `O=C(N1CCCC1)n1ncc(-c2ccc(-c3ccccc3)cc2)n1` the IC50 [7] was 170 µM (active) and the IC50 [8] was 0.003 µM (active).

In the case of `Cc1ccc(C(=O)N[C@@H](C)CN2CCC(n3c(=O)[nH]c4c(F)cccc43)CC2)cc1`, the IC50 [9] is reported as 0.222 µM (active) and the IC50 [10] is reported as 20 µM (active).

In the case of `O=C(O)c1ccc(-c2ccc(/C=c3/sc4nc5ccccc5n4c3=O)o2)cc1Cl`, the IC50 [11] is reported as 5.86 µM (active), the IC50 [12] is reported as 2.89 µM (active) and the IC50 [13] is reported as 123 µM (not active). For the same compound, the EC50 [14] was 9.71 µM (inactive), the EC50 [15] was 5.96 µM (active) and the IC50 [16] was 12.2 µM (active). The IC50 [17] was 21.9 µM (inactive), the EC50 [18] was 12.2 µM (active) and the EC50 [19] was 20.3 µM (active). The AC50 [20] was 2 µM (active), the IC50 [21] was > 66.6 µM (inactive) and the IC50 [22] was 11.5 µM (active). The IC50 [23] was 48.4 µM (active).

In the case of `COc1ccc(C(NC(=O)c2ccccc2)c2ccc3cccnc3c2O)cc1` (stereo unspecified), the IC50 [24] is reported as 6.26 µM (active), the IC50 [25] is reported as 2.67 µM (active) and the IC50 [26] is reported as 23.2 µM (inactive).

In the case of `O=C(N/N=C/c1cn(-c2ccccc2)nc1-c1ccc2c(c1)OCCO2)c1ccncc1`, the EC50 [27] is reported as > 54.7 µM (inactive), the EC50 [28] is reported as > 54.7 µM (inactive) and the IC50 [29] is reported as 29.2 µM (inactive). The EC50 [30] was > 54.7 µM (inactive) and the IC50 [31] was 6.51 µM (active).
